1 compound from US20060265770A1, “Transgenic mice containing glutamate receptor (GRIK5) gene disruptions” (priority 2000, published 2006) can be followed below.

The data set deals with F2N1 Male Mice. Briefly: Metrazol Test (seizure susceptibility, tail vein infusion). It counts as in vivo, mouse. The settings on record: for dose at death, Average ± Stdev / dose at first twitch, Average ± Stdev / dose at tonic extension, Average ± Stdev / dose at tonic/clonic seizure, Average ± Stdev: 5 mg/mL Metrazol infused through tail vein at 0.375 mL/min. The procedure: A metrazol administration test can be used to screen animals for varying susceptibilities to seizures or similar events. For example, a 5 mg/ml solution of metrazol can be infused through the tail vein of a mouse at a rate of, e.g., approximately 0.375 ml/min. The infusion will cause all mice to experience seizures, followed by death. Those mice that enter the seizure stage the soonest are believed to be more prone to seizures.
To screen for phenotypes involving changes in seizure susceptibility, the Metrazol Test was used. A 5 mg/mL solution of Metrazol was infused through the tail vein of the mouse at a constant rate of 0.375 mL/min. The infusion causes all mice to experience seizures. Those mice who enter the seizure stage the quickest are thought to be more prone to seizures in general.
To screen for phenotypes involving epilepsy, the Metrazol was used. Seven to ten adult wild-type and homozygote males were used. A fresh solution of 5 mg/ml pentylenetetrazole in 0.9% NaCl was prepared prior to testing. Mice were weighed and loosely held in a restrainer. After exposure to a heat lamp to dilate the tail vein, mice were continuously infused with the pentylenetetrazole solution using a syringe pump set at a constant flow rate. The following stages were recorded: first twitch (sometimes accompanied by a squeak), beginning of the tonic/clonic seizure, tonic extension and survival time. The dose required for each phase is determined and the latency to each phase was determined between genotypes. Alterations in any stage may indicate an overall imbalance in excitatory or inhibitory neurotransmitter levels. When compared to age- and gender-matched wild-type (+/+) control mice, homozygous mutant (−/−) mice required a lower dose of metrazol to induce a tonic/clonic seizure (FIG. 5 and Table 1), indicating an increased susceptibility to seizure.

[1] abbreviates: GRIK5 homozygous mutant (−/−) F2N1 male mice.

For the compound `C1CCc2nnnn2CC1` [Metrazol, pentylenetetrazole], under setting [1], the “dose at death, Average ± Stdev” value is given as 136.12 ± 27.18 mg/kg; the “dose at first twitch, Average ± Stdev” value was 26.38 ± 2.59 mg/kg; the “dose at tonic extension, Average ± Stdev” value came out at 115.34 ± 28.63 mg/kg; the “dose at tonic/clonic seizure, Average ± Stdev” value came to 34.02 ± 6.24 mg/kg. Moreover, the “dose of metrazol to induce a tonic/clonic seizure, in words” value (homozygous mutant (−/−) mice compared to age- and gender-matched wild-type (+/+) control mice) is recorded as “lower dose”. In addition, for the setting “wild-type (+/+) F2N1 male mice”, the “dose at death, Average ± Stdev” value came out at 134.29 ± 31.19 mg/kg; the “dose at first twitch, Average ± Stdev” value is recorded as 29.73 ± 3.85 mg/kg; the “dose at tonic extension, Average ± Stdev” value is 112.07 ± 29.70 mg/kg; the “dose at tonic/clonic seizure, Average ± Stdev” value was 44.59 ± 9.74 mg/kg.
